Assay results taken from the NIST ThermoML archive (doi:10.1016/j.fluid.2014.04.021).
± gives the expanded uncertainty stated by the source.

Details: 101 kPa, Liquid, Vibrating tube method

C1CCC2=NCCCN2CC1 [1,8-diaza-7-bicyclo[5.4.0]undecene]
mass density (293.15 K): 1019.84 ± 0.24 kg/m3
mass density (298.15 K): 1016.15 ± 0.24 kg/m3
mass density (303.15 K): 1012.45 ± 0.24 kg/m3
mass density (308.15 K): 1008.73 ± 0.24 kg/m3
mass density (313.15 K): 1005 ± 0.23 kg/m3
mass density (318.15 K): 1001.25 ± 0.23 kg/m3
mass density (323.15 K): 997.479 ± 0.23 kg/m3
mass density (328.15 K): 993.692 ± 0.23 kg/m3
mass density (333.15 K): 989.886 ± 0.23 kg/m3
mass density (338.15 K): 986.062 ± 0.23 kg/m3
mass density (343.15 K): 982.224 ± 0.23 kg/m3
mass density (348.15 K): 978.366 ± 0.23 kg/m3
mass density (353.15 K): 974.493 ± 0.23 kg/m3
mass density (358.15 K): 970.601 ± 0.23 kg/m3
